Measured values as given in patent US10647747B2, “Cyclosporin derivatives and uses thereof” (S&T Global Inc., priority 2010, dated 2020).
Where two headings read alike, the source gives them in different places. *1 amine or outer side, *2 acyl side, *3 side chain or, on linkers, in order; H or OH if unused. Where a SMILES comes first, the peptide text is derived from it. [ ]: non-standard residue; d: D form. MeBmt = C/C=C/C[C@@H](C)[C@@H](O)[C@H](NC)C(=O)O; X10 = CN(C(CC(C)(C)OCc1ccccc1)C(=O)[*:2])[*:1]; X8 = CCN(CC)CCS[C@@H](C(=O)[*:2])N(C)[*:1]; X6 = CCN(CC)CCS[C@H](C(=O)[*:2])N(C)[*:1]; X3 = CC=CCC(C)C(O)C(C(=O)[*:2])N(C)[*:1]; X13 = CCN(CC)CCCSC(C(=O)[*:2])N(C)[*:1]; X7 = CN(C(SCCCN1CCOCC1)C(=O)[*:2])[*:1]; NMeL = CN[CH](CC(C)C)C(=O)O; NMeV = CN[CH](C(=O)O)C(C)C; Abu = CC[CH](N)C(=O)O

Tested on: HCV replicon in cell line ET (luc-ubi-neo/ET), Huh7 human hepatoma
Assay: HCV subgenomic replicon assay, luciferase end point
Assay type: cell-based
[1] = Table 13, HCV replicon luciferase, read-out: Antiviral activity EC50
[2] = HCV subgenomic replicon, cell line ET (luc-ubi-neo/ET) Huh7, luciferase end point, read-out: Antiviral activity EC50
[3] = Table 16, HCV replicon luciferase, read-out: Antiviral activity EC50
[4] = Hepatitis C virus, Huh-7, read-out: Antiviral activity EC50, Table 12, HCV replicon luciferase
[5] = Table 12, HCV replicon luciferase, read-out: Antiviral activity EC50
[6] = Table 14, HCV replicon luciferase, read-out: Antiviral activity EC50

CC=CCC(C)C(O)C1C(=O)NC(CC)C(=O)N(C)C(SCCCN2CCOCC2)C(=O)N(C)C(CC(C)(C)O)C(=O)NC(C(C)C)C(=O)N(C)C(CC(C)C)C(=O)NC(C)C(=O)NC(C)C(=O)N(C)C(CC(C)C)C(=O)N(C)C(CC(C)C)C(=O)N(C)C(C(C)C)C(=O)N1C [[(S)-3-(N-Morpholino)propylthio-Sar]-3-[(γ-hydroxy)-N-MeLeu]-4-cyclosporin]
EC50 [1]: 50 nM

CC=CCC(C)C(O)C1C(=O)NC(CC)C(=O)N(C)C(CSCCCN2CCCCC2)C(=O)N(C)C(CC(C)(C)OC)C(=O)NC(C(C)C)C(=O)N(C)C(CC(C)C)C(=O)NC(C)C(=O)NC(C)C(=O)N(C)C(CC(C)C)C(=O)N(C)C(CC(C)C)C(=O)N(C)C(C(C)C)C(=O)N1C (stereo not drawn)
EC50 [2]: 60 nM

CC=CCC(C)C(O)C1C(=O)NC(CC)C(=O)N(C)C(CSCCCN2CCN(CC)CC2)C(=O)N(C)C(CC(C)(C)O)C(=O)NC(C(C)C)C(=O)N(C)C(CC(C)C)C(=O)NC(C)C(=O)NC(C)C(=O)N(C)C(CC(C)C)C(=O)N(C)C(CC(C)C)C(=O)N(C)C(C(C)C)C(=O)N1C (stereo not drawn)
EC50 [3]: 50 nM

CC=CCC(C)C(O)C1C(=O)NC(CC)C(=O)N(C)C(CSCCCN2CCN(CC(C)(C)C)CC2)C(=O)N(C)C(CC(C)(C)O)C(=O)NC(C(C)C)C(=O)N(C)C(CC(C)C)C(=O)NC(C)C(=O)NC(C)C(=O)N(C)C(CC(C)C)C(=O)N(C)C(CC(C)C)C(=O)N(C)C(C(C)C)C(=O)N1C (stereo not drawn)
EC50 [3]: 60 nM

CC=CCC(C)C(O)C1C(=O)NC(CC)C(=O)N(C)CC(=O)N(C)C(CC(C)(C)OC)C(=O)NC(C(C)C)C(=O)N(C)C(CC(C)C)C(=O)NC(C)C(=O)NC(C)C(=O)N(C)C(CC(C)C)C(=O)N(C)C(CC(C)C)C(=O)N(C)C(C(C)C)C(=O)N1C (stereo not drawn) [[(γ-Methoxy)-N-MeLeu]-4-cyclosporin]
EC50 [1]: 180 nM

CC=CCC(C)C(O)C1C(=O)NC(CC)C(=O)N(C)CC(=O)N(C)C(CO)C(=O)NC(C(C)C)C(=O)N(C)C(CC(C)C)C(=O)NC(C)C(=O)NC(C)C(=O)N(C)C(CC(C)C)C(=O)N(C)C(CC(C)C)C(=O)N(C)C(C(C)C)C(=O)N1C (stereo not drawn) [[N-MeSer]-4-cyclosporin]
EC50 [1]: 560 nM

C/C=C/C[C@@H](C)[C@@H](O)[C@H]1C(=O)N[C@@H](CC)C(=O)N(C)CC(=O)N(C)[C@@H]([C@@H](C)CC)C(=O)N[C@@H](C(C)C)C(=O)N(C)[C@@H](CC(C)C)C(=O)N[C@@H](C)C(=O)N[C@H](C)C(=O)N(C)[C@@H](CC(C)C)C(=O)N(C)[C@@H](CC(C)C)C(=O)N(C)[C@@H](C(C)C)C(=O)N1C [[N-MeIle]-4-cyclosporin (SDZ-NIM-811), N-MeIle-4-Cyclosporin, reference compound]
EC50 [4]: 150 nM

CC=CCC(C)C(O)C1C(=O)NC(CC)C(=O)N(C)C(SCCCN(CC)CC)C(=O)N(C)C(C(C)C)C(=O)NC(C(C)C)C(=O)N(C)C(CC(C)C)C(=O)NC(C)C(=O)NC(C)C(=O)N(C)C(CC(C)C)C(=O)N(C)C(CC(C)C)C(=O)N(C)C(C(C)C)C(=O)N1C [[(S)-3-(N,N-Diethylamino)propylthio-Sar]-3-[N-MeVal]-4-cyclosporin] (cyclo([X3][Abu][X13][NMeV]V[NMeL]AA[NMeL][NMeL][NMeV]); configuration not given here)
EC50 [2]: 70 nM

C/C=C/C[C@@H](C)[C@@H](O)[C@H]1C(=O)N[C@@H](CC)C(=O)N(C)[C@H](CSCCCN(C)C)C(=O)N(C)[C@@H](CC(C)(C)O)C(=O)N[C@@H](C(C)C)C(=O)N(C)[C@@H](CC(C)C)C(=O)N[C@@H](C)C(=O)N[C@H](C)C(=O)N(C)[C@@H](CC(C)C)C(=O)N(C)[C@@H](CC(C)C)C(=O)N(C)[C@@H](C(C)C)C(=O)N1C
EC50 [2]: 110 nM

CC=CCC(C)C(O)C1C(=O)NC(CC)C(=O)N(C)C(COCCN(CC)CC)C(=O)N(C)C(CC(C)(C)O)C(=O)NC(C(C)C)C(=O)N(C)C(CC(C)C)C(=O)NC(C)C(=O)NC(C)C(=O)N(C)C(CC(C)C)C(=O)N(C)C(CC(C)C)C(=O)N(C)C(C(C)C)C(=O)N1C (stereo not drawn)
EC50 [2]: 120 nM

CC=CCC(C)C(O)C1C(=O)NC(CC)C(=O)N(C)C(COCCN2CCCCC2)C(=O)N(C)C(CC(C)(C)O)C(=O)NC(C(C)C)C(=O)N(C)C(CC(C)C)C(=O)NC(C)C(=O)NC(C)C(=O)N(C)C(CC(C)C)C(=O)N(C)C(CC(C)C)C(=O)N(C)C(C(C)C)C(=O)N1C [[(R)-(2-(N-Piperidinyl)ethoxy)methyl-Sar]-3-[(γ-hydroxy)-N-MeLeu]-4-cyclosporin]
EC50 [2]: 140 nM

C/C=C/C[C@@H](C)[C@@H](O)[C@H]1C(=O)N[C@@H](CC)C(=O)N(C)[C@H](CSCCN(CC)CC)C(=O)N(C)[C@@H](CC(C)(C)O)C(=O)N[C@@H](C(C)C)C(=O)N(C)[C@@H](CC(C)C)C(=O)N[C@@H](C)C(=O)N[C@H](C)C(=O)N(C)[C@@H](CC(C)C)C(=O)N(C)[C@@H](CC(C)C)C(=O)N(C)[C@@H](C(C)C)C(=O)N1C (single isomer, unassigned)
EC50 (Hepatitis C virus, Huh-7, Table 14, HCV replicon luciferase, read-out: Antiviral activity EC50): 30 nM

C/C=C/C[C@@H](C)[C@@H](O)[C@H]1C(=O)N[C@@H](CC)C(=O)N(C)[C@@H](SCCN(CC)CC)C(=O)N(C)[C@@H](C(C)C)C(=O)N[C@@H](C(C)C)C(=O)N(C)[C@@H](CC(C)C)C(=O)N[C@@H](C)C(=O)N[C@H](C)C(=O)N(C)[C@@H](CC(C)C)C(=O)N(C)[C@@H](CC(C)C)C(=O)N(C)[C@@H](C(C)C)C(=O)N1C [(S)-2-(N,N-Diethylamino)ethylthio-Sar]-3-[N-MeVal]-4-cyclosporin] (cyclo(A[dA][NMeL][NMeL][NMeV][MeBmt][Abu][X8][NMeV]V[NMeL]))
EC50 [5]: 40 nM

C/C=C/C[C@@H](C)[C@@H](O)[C@H]1C(=O)N[C@@H](CC)C(=O)N(C)[C@@H](CSCCN(CC)CC)C(=O)N(C)[C@@H](CC(C)(C)O)C(=O)N[C@@H](C(C)C)C(=O)N(C)[C@@H](CC(C)C)C(=O)N[C@@H](C)C(=O)N[C@H](C)C(=O)N(C)[C@@H](CC(C)C)C(=O)N(C)[C@@H](CC(C)C)C(=O)N(C)[C@@H](C(C)C)C(=O)N1C (single isomer, unassigned; isomer a)
EC50 [6]: 2120 nM

CC=CCC(C)C(O)C1C(=O)NC(CC)C(=O)N(C)C(CSCCN2CCCCC2)C(=O)N(C)C(CC(C)(C)O)C(=O)NC(C(C)C)C(=O)N(C)C(CC(C)C)C(=O)NC(C)C(=O)NC(C)C(=O)N(C)C(CC(C)C)C(=O)N(C)C(CC(C)C)C(=O)N(C)C(C(C)C)C(=O)N1C (stereo not drawn)
EC50 [2]: 80 nM

C/C=C/C[C@@H](C)[C@@H](O)[C@H]1C(=O)N[C@@H](CC)C(=O)N(C)[C@H](CSCCNCC(C)(C)C)C(=O)N(C)[C@@H](CC(C)(C)O)C(=O)N[C@@H](C(C)C)C(=O)N(C)[C@@H](CC(C)C)C(=O)N[C@@H](C)C(=O)N[C@H](C)C(=O)N(C)[C@@H](CC(C)C)C(=O)N(C)[C@@H](CC(C)C)C(=O)N(C)[C@@H](C(C)C)C(=O)N1C
EC50 (Hepatitis C virus, Huh-7, HCV subgenomic replicon, cell line ET (luc-ubi-neo/ET) Huh7, luciferase end point, read-out: Antiviral activity EC50): 60 nM
EC50 (Hepatitis C virus, Huh-7, Table 16, HCV replicon luciferase, read-out: Antiviral activity EC50): 50 nM

C/C=C/C[C@@H](C)[C@@H](O)[C@H]1C(=O)N[C@@H](CC)C(=O)N(C)CC(=O)N(C)[C@@H](C(C)C)C(=O)N[C@@H](C(C)C)C(=O)N(C)[C@@H](CC(C)C)C(=O)N[C@@H](C)C(=O)N[C@H](C)C(=O)N(C)[C@@H](CC(C)C)C(=O)N(C)[C@@H](CC(C)C)C(=O)N(C)[C@@H](C(C)C)C(=O)N1C [[N-MeVal]-4-cyclosporin (SDZ 220-384), N-MeVal-4-Cyclosporin, reference compound]
EC50 [4]: 170 nM

C/C=C/C[C@@H](C)[C@@H](O)[C@H]1C(=O)N[C@@H](CC)C(=O)N(C)[C@H](CSCCN(C)C)C(=O)N(C)[C@@H](CC(C)(C)O)C(=O)N[C@@H](C(C)C)C(=O)N(C)[C@@H](CC(C)C)C(=O)N[C@@H](C)C(=O)N[C@H](C)C(=O)N(C)[C@@H](CC(C)C)C(=O)N(C)[C@@H](CC(C)C)C(=O)N(C)[C@@H](C(C)C)C(=O)N1C (single isomer, unassigned; isomer b)
EC50 [6]: 50 nM

CC=CCC(C)C(O)C1C(=O)NC(CC)C(=O)N(C)C(SCCCN2CCOCC2)C(=O)N(C)C(CC(C)(C)OCc2ccccc2)C(=O)NC(C(C)C)C(=O)N(C)C(CC(C)C)C(=O)NC(C)C(=O)NC(C)C(=O)N(C)C(CC(C)C)C(=O)N(C)C(CC(C)C)C(=O)N(C)C(C(C)C)C(=O)N1C [[(S)-(3-(N-Morpholino)propylthio-Sar]-3-[(γ-benzyloxy)-N-MeLeu]-4-cyclosporin] (cyclo([X3][Abu][X7][X10]V[NMeL]AA[NMeL][NMeL][NMeV]); configuration not given here)
EC50 [1]: 280 nM

CC=CCC(C)C(O)C1C(=O)NC(CC)C(=O)N(C)C(CSCCCN2CCN(C(C)C)CC2)C(=O)N(C)C(CC(C)(C)O)C(=O)NC(C(C)C)C(=O)N(C)C(CC(C)C)C(=O)NC(C)C(=O)NC(C)C(=O)N(C)C(CC(C)C)C(=O)N(C)C(CC(C)C)C(=O)N(C)C(C(C)C)C(=O)N1C (stereo not drawn)
EC50 [3]: 50 nM

C/C=C/C[C@@H](C)[C@@H](O)[C@H]1C(=O)N[C@@H](CC)C(=O)N(C)[C@H](SCCN(CC)CC)C(=O)N(C)[C@@H](C(C)C)C(=O)N[C@@H](C(C)C)C(=O)N(C)[C@@H](CC(C)C)C(=O)N[C@@H](C)C(=O)N[C@H](C)C(=O)N(C)[C@@H](CC(C)C)C(=O)N(C)[C@@H](CC(C)C)C(=O)N(C)[C@@H](C(C)C)C(=O)N1C [(R)-2-(N,N-Diethylamino)ethylthio-Sar]-3-[N-MeVal]-4-cyclosporin] (cyclo(A[dA][NMeL][NMeL][NMeV][MeBmt][Abu][X6][NMeV]V[NMeL]))
EC50 [5]: 3660 nM

C/C=C/C[C@@H](C)[C@@H](O)[C@H]1C(=O)N[C@@H](CC)C(=O)N(C)[C@H](CSCCCCO)C(=O)N(C)[C@@H](CC(C)(C)O)C(=O)N[C@@H](C(C)C)C(=O)N(C)[C@@H](CC(C)C)C(=O)N[C@@H](C)C(=O)N[C@H](C)C(=O)N(C)[C@@H](CC(C)C)C(=O)N(C)[C@@H](CC(C)C)C(=O)N(C)[C@@H](C(C)C)C(=O)N1C [[(S)-(4-Hydroxylbutylthio)methyl-Sar]-3-[(γ-hydroxy)-N-MeLeu]-4-cyclosporin]
EC50 [3]: 20 nM

CC=CCC(C)C(O)C1C(=O)NC(CC)C(=O)N(C)C(CSCCCCN(CC(C)C)CC(C)C)C(=O)N(C)C(CC(C)(C)O)C(=O)NC(C(C)C)C(=O)N(C)C(CC(C)C)C(=O)NC(C)C(=O)NC(C)C(=O)N(C)C(CC(C)C)C(=O)N(C)C(CC(C)C)C(=O)N(C)C(C(C)C)C(=O)N1C (stereo not drawn)
EC50 [3]: 40 nM
